According to US10988451B2, “MCL-1 inhibitors” (Gilead Sciences, Inc., priority 2018, dated 2021):
Like-named read-outs stand apart in the source and are kept apart here.

Tests used:
MCL-1/Bim = MCL-1/Bim (Homo sapiens (Human), UniProt Q07820); test: MCL-1/Bim Binding AlphaLISA Assay; conditions: 6xHis-Mcl-1 (171-327) and biotinylated Bim peptide (51-76)
Protocol: MCL-1/Bim Binding AlphaLISA Assay.
Inhibition of the MCL-1 and Bim interaction was measured in the following AlphaLISA assay.
Recombinant human MCL-1 protein (C-terminal 6×His Tagged Mcl-1 containing residues 171-327) was generated at Gilead Sciences, Inc. (Foster City, Calif.). A biotinylated peptide derived from human Bim (residues 51-76) was purchased from CPC Scientific (Sunnyvale, Calif.). (CPC 834113). AlphaLISA anti-6His-acceptor beads (AL128R), AlphaScreen Streptavidin donor beads (6760002B), and Proxiplate-384 Plus (6008289) were purchased from PerkinElmer.
The AlphaLISA assay was performed in a 384-well Proxiplate in a total volume of 40 μL. The reaction mixture contained 0.0625 nM 6× His-Mcl-1 (171-327), 0.0625 nM biotinylated-Bim peptide, 10 μg/mL AlphaLISA anti-6×His-AlphaLISA acceptor beads, 40 μg/mL AlphaScreen streptavidin donor beads, and serially diluted test compounds in the binding buffer (20 mM Hepes, pH 7.5 (Teknova H1035); 150 mM NaCl (Promega V4221); 0.002% Brij 35 (Thermo Scientific 20150); 1 mM Dithiothreitol (DTT) Solution (Affymetrix 70726); 0.01% BSA (BioLabs B9000S)). 1,000× test compounds were pre-spotted onto 384-well Proxiplate (Labcyte Echo) by Echo 555 Liquid Handler (Labcyte Inc., San Jose, Calif.) followed by incubation of 5 μl Mcl-1(171-327) for 1 hour. Then 5 μL Bim (51-76) was added and incubated for 2 hours. Five μL AlphaLISA anti-6His-AlphaLISA acceptor beads were then added for 1 hour followed by addition of 5 μL AlphaScreen streptavidin donor beads for 1 hour. The reaction plates were then read on an Envision multimode reader (PerkinElmer) using AlphaScreen settings. […] Percent inhibition was calculated as shown below: % Inhibition=100%*(Well−Neg)/(Pos−Neg) Neg: negative control, DMSO Pos: positive control, no Mcl-1 protein, no biotinylated-Bim peptide

SKBR3 cells = test: SKBR3 Cell Viability Assay; type: cell-based; conditions: CellTiter Glo, read-out: MCL-1 CV SKBR3 EC50
Protocol: SKBR3 Cell Viability Assay Materials
SKBR3 Cells (ATCC HTB-30) were obtained from ATCC (Manassas, Va.) and cultured in McCoy 5A's medium (ATCC 30-2007)+10% fetal bovine serum (SH30071.03, HyClone, Pittsburgh, Pa.) plus 1× Penicillin-Streptomycin L-glutamine (Corning 30-009-C1, Corning, N.Y.)).
The cell viability assay was conducted in a 384-well tissue culture plate (Grenier 781086, Monroe, N.C.) in a total volume of 70 μL. Test compounds were prepared in 1,000×, serially diluted, and pre-spotted into 384-well tissue culture plate by Echo 555 Liquid Handler (Labcyte Inc., San Jose, Calif.). Seventy μ1 of 6,000 SKBR3 cells were dispensed into each well of the plate and incubated at 37° C. with 5% CO2 for 72 hours. At the end of incubation, 2× CellTiter Glo (CTG) reagents (1 part buffer with 2 parts substrate) (Promega, Madison, Wis.) were prepared, and the plate and the reagent were equilibrated to room temperature for 30 minutes. CTG reagent was added to each plate by Biomek FX at 20 μL/well with 5 times pipetting and mixing to induce cell lysis. Luminescence was read by Envision multimode reader (PerkinElmer). […] Percent inhibition was calculated as followed: % Inhibition=100%*(Well−Neg)/(Pos−Neg) Neg, negative control, DMSO Pos, positive control, 10 μM Puromycin

MCL-1/Bim, sequence (Q07820 171-327): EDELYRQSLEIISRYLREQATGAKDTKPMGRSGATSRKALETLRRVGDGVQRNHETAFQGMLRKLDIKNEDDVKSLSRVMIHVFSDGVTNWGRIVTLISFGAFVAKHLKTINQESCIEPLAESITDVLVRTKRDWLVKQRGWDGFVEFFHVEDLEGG

Row | SMILES | IC50 (MCL-1/Bim) [nM] | EC50 (SKBR3 cells; Homo sapiens, SK-BR-3, 72 h) [nM] | EC50 (SKBR3 cells; 72 hours) [nM]
1 | CCOC(=O)NS1(=O)=NC(=O)c2ccc3c(c2)N(C[C@@H]2CC[C@H]2[C@@H](OC)/C=C/CCC1)C[C@@]1(CCCc2cc(Cl)ccc21)CO3 (single isomer, unassigned) [Example 10] | 3.6 |  | 
2 | CO[C@H]1/C=C/CCCS(=O)(NC(=O)CCN(C)C)=NC(=O)c2ccc3c(c2)N(C[C@@H]2CC[C@H]21)C[C@@]1(CCCc2cc(Cl)ccc21)CO3 (stereo partly drawn) [Example 15] | 7.4 | 7730 | 
3 | CO[C@H]1/C=C/C[C@H](C)[C@@H](C)[S@@](=O)(NC(=O)c2cnn(C3COC3)c2)=NC(=O)c2ccc3c(c2)N(C[C@@H]2CC[C@H]21)C[C@@]1(CCCc2cc(Cl)ccc21)CO3 [Example 152] | 0.057 | 55.7 | 
4 | CCC(=O)N[S@@]1(=O)=NC(=O)c2ccc3c(c2)N(C[C@@H]2CC[C@H]2[C@@H](OC)CCCCC1)C[C@@]1(CCCc2ccccc21)CO3 [Example 16] | 4.2 |  | 
5 | COC1Cc2cc(C(=O)N[S@@]3(=O)=NC(=O)c4ccc5c(c4)N(C[C@@H]4CC[C@H]4[C@@H](OC)/C=C/C[C@H](C)C3)C[C@@]3(CCCc4cc(Cl)ccc43)CO5)cn2C1 (stereo partly drawn) [Example 205] | 0.075 | 58.9 | 
6 | CO[C@H]1/C=C/CCC[S@@](=O)(NC(=O)NCc2ccc(F)cc2)=NC(=O)c2ccc3c(c2)N(C[C@@H]2CC[C@H]21)C[C@@]1(CCCc2cc(Cl)ccc21)CO3 [Example 37] | 1.4 | 1610 | 
7 | CCC(=O)N[S@]1(=O)=NC(=O)c2ccc3c(c2)N(C[C@@H]2CC[C@H]2[C@@H](OC)/C=C/CCCC1)C[C@@]1(CCCc2cc(Cl)ccc21)CO3 [Example 69] | 4 |  | 
8 | CC[C@H]1CN2C[C@@]3(CCCc4cc(Cl)ccc43)COc3ccc(cc32)C(=O)N=[S@](=O)(NC(=O)CC(C)C)CCC/C=C/[C@H](OC)[C@@H]1C [Example 26] | 1.8 | 1690 | 
9 | CC[C@H]1CN2C[C@@]3(CCCc4cc(Cl)ccc43)COc3ccc(cc32)C(=O)N=[S@](=O)(NC(=O)NC(C)C)CCC/C=C/[C@H](OC)[C@@H]1C [Example 19] | 1.1 | 1080 | 
10 | CC[C@H]1CN2C[C@@]3(CCCc4cc(Cl)ccc43)COc3ccc(cc32)C(=O)N=[S@](=O)(NC(=O)Cc2cnccn2)CCC/C=C/[C@H](OC)[C@@H]1C [Example 20] | 0.5 | 2060 | 
11 | CCNC(=O)N[S@@]1(=O)=NC(=O)c2ccc3c(c2)N(C[C@@H]2CC[C@H]2[C@@H](OC)CCCCC1)C[C@@]1(CCCc2cc(Cl)ccc21)CO3 [Example 13] | 1.8 |  | 
12 | CO[C@H]1/C=C/C[C@H](C)C[S@@](=O)(NC(=O)c2ccc3c(c2)COCC3)=NC(=O)c2ccc3c(c2)N(C[C@@H]2CC[C@H]21)C[C@@]1(CCCc2cc(Cl)ccc21)CO3 [Example 157] | 0.234 | 64.8 | 
13 | CO[C@H]1/C=C/CCC[S@@](=O)(NC(=O)CCc2ccnn2C)=NC(=O)c2ccc3c(c2)N(C[C@@H]2CC[C@H]21)C[C@@]1(CCCc2cc(Cl)ccc21)CO3 [Example 22] | 0.1 |  | 259
14 | CO[C@H]1/C=C/CCCS(=O)(NC(=O)CCc2ccnn2C)=NC(=O)c2ccc3c(c2)N(C[C@@H]2CC[C@H]21)C[C@@]1(CCCc2cc(Cl)ccc21)CO3 (single isomer, unassigned) [Example 48] | 3.7 | 8450 | 
15 | CO[C@H]1/C=C/CCC[S@@](=O)(NC(=O)CCc2ccn(C)n2)=NC(=O)c2ccc3c(c2)N(C[C@@H]2CC[C@H]21)C[C@@]1(CCCc2cc(Cl)ccc21)CO3 [Example 51] | 0.1 | 705 | 
16 | CCNC(=O)N[S@@]1(=O)=NC(=O)c2ccc3c(c2)N(C[C@@H]2CC[C@H]2[C@@H](OC)CCCCC1)C[C@@]1(CCCc2cc(Cl)ccc21)CO3 [Example 14] | 0.3 |  | 

Row | SMILES | IC50 (MCL-1/Bim) [nM] | EC50 (SKBR3 cells; Homo sapiens, SK-BR-3, 72 h) [nM] | EC50 (SKBR3 cells; 72 hours) [nM]
17 | CO[C@H]1/C=C/C[C@H](C)[C@@H](C)[S@](=O)(NC(=O)CCc2ccnn2C)=NC(=O)c2ccc3c(c2)N(C[C@@H]2CC[C@H]21)C[C@@]1(CCCc2cc(Cl)ccc21)CO3 [Example 50] | 1.4 | 3320 | 
18 | CCC(=O)NS1(=O)=NC(=O)c2ccc3c(c2)N(C[C@@H]2CC[C@H]2[C@@H](OC)/C=C/CCC1)C[C@@]1(CCCc2cc(Cl)ccc21)CO3 (single isomer, unassigned) [Example 4] | 0.7 |  | 
19 | COc1nn(C)cc1C(=O)N[S@@]1(=O)=NC(=O)c2ccc3c(c2)N(C[C@@H]2CC[C@H]2[C@@H](O)/C=C/[C@H](O)[C@H](C)C1)C[C@@]1(CCCc2cc(Cl)ccc21)CO3 [Example 279] | 0.041 |  | 
20 | CO[C@H]1/C=C/C[C@H](C)C[S@@](=O)(NC(=O)NCC2CC2)=NC(=O)c2ccc3c(c2)N(C[C@@H]2CC[C@H]21)C[C@@]1(CCCc2cc(Cl)ccc21)CO3 [Example 107] | 0.1 |  | 
21 | CCC(=O)N[S@@]1(=O)=NC(=O)c2ccc3c(c2)N(C[C@@H]2CC[C@H]2[C@@H](O)/C=C/CCC1)C[C@@]1(CCCc2cc(Cl)ccc21)CO3 [Example 62] | 0.4 |  | 
22 | CO[C@H]1/C=C/C[C@H](C)C[S@@](=O)(NC(=O)C2CC(OC(F)F)C2)=NC(=O)c2ccc3c(c2)N(C[C@@H]2CC[C@H]21)C[C@@]1(CCCc2cc(Cl)ccc21)CO3 (stereo partly drawn) [Example 431] | 0.121 |  | 
23 | COc1nn(C)cc1C(=O)N[S@@]1(=O)=NC(=O)c2ccc3c(c2)N(C[C@@H]2CC[C@H]2[C@@H](OC)/C=C/[C@H](OC(=O)CCc2ccccc2)[C@H](C)C1)C[C@@]1(CCCc2cc(Cl)ccc21)CO3 [Example 377] | 0.106 |  | 34
24 | CCOC(=O)N[S@]1(=O)=NC(=O)c2ccc3c(c2)N(C[C@@H]2CC[C@H]2[C@@H](OC)/C=C/CCC1)C[C@@]1(CCCc2cc(Cl)ccc21)CO3 [Example 9] | 6.6 |  | 
25 | CCC(=O)N[S@@]1(=O)=NC(=O)c2ccc3c(c2)N(C[C@@H]2CC[C@H]2[C@@H](OC)CCCCC1)C[C@@]1(CCCc2cc(Cl)ccc21)CO3 [Example 11] | 6.5 |  | 
26 | CCC(=O)N[S@]1(=O)=NC(=O)c2ccc3c(c2)N(C[C@@H]2CC[C@H]2[C@@H](O)/C=C/CCC1)C[C@@]1(CCCc2cc(Cl)ccc21)CO3 [Example 63] | 1.4 |  | 
27 | CCC(=O)N[S@]1(=O)=NC(=O)c2ccc3c(c2)N(C[C@@H]2CC[C@H]2[C@@H](OC)/C=C/CCC1)C[C@@]1(CCCc2cc(Cl)ccc21)CO3 [Example 3] | 4.1 |  | 
28 | CO[C@H]1/C=C/C[C@H](C)C[S@@](=O)(CC(=O)N[C@@H]2CC[C@@H](O)C2)=NC(=O)c2ccc3c(c2)N(C[C@@H]2CC[C@H]21)C[C@@]1(CCCc2cc(Cl)ccc21)CO3 [Example 222] | 0.044 | 80.1 | 
29 | CO[C@H]1/C=C/CCC[S@@](=O)(NC(=O)CC(F)(F)F)=NC(=O)c2ccc3c(c2)N(C[C@@H]2CC[C@H]21)C[C@@]1(CCCc2cc(Cl)ccc21)CO3 [Example 23] |  |  | 1450
30 | COc1nn(C)cc1C(=O)N[S@@]1(=O)=NC(=O)c2ccc3c(c2)N(C[C@@H]2CC[C@H]2[C@@H](O)/C=C/C[C@H](C)[C@H]1C)C[C@@]1(CCCc2cc(Cl)ccc21)CO3 [Example 359] | 0.038 | 19 | 
31 | CO[C@H]1/C=C/CCC[S@@](N)(=O)=NC(=O)c2ccc3c(c2)N(C[C@@H]2CC[C@H]21)C[C@@]1(CCCc2cc(Cl)ccc21)CO3 [Example 5] | 60.2 |  | 
32 | CC[C@H]1CN2C[C@@]3(CCCc4cc(Cl)ccc43)COc3ccc(cc32)C(=O)N=[S@](=O)(NC(C)=O)CCC/C=C/[C@H](OC)[C@@H]1C [Example 25] | 0.6 | 2010 | 
